Experimental data: paper PMC4015959, “The Structural and Functional Basis of Catalysis Mediated by NAD(P)H:acceptor Oxidoreductase (FerB) of Paracoccus denitrificans” (PLoS ONE, 2014)
Several values for one entry are separate records, joined by “and”; a condition that tells them apart may be missing. Identical values can stand only once. One block for each molecule: values may come before it.

Assays:
apoFerBHis6 = apoFerBHis6 (Paracoccus denitrificans, UniProt A1B9E3); assay: Fluorescence titration of free flavin by apoenzyme (dissociation constants); format: binding; conditions: for Kd: 25 mM Tris-HCl, pH 7.4, 25 °C, read-out: Kd of apoFerBHis6-flavin complex
Description: Dissociation constants of apoenzyme-flavin complexes were determined from fluorescence titration with excitation at 450 nm by adding of constant amount of the wild-type and mutant variants of apoFerBHis6 into 25 mM Tris-HCl buffer (pH 7.4) with 100 nM FMN or riboflavin. Decreasing emission intensities at 519 nm were recorded on Luminescence Spectrotometer LS-50B (Perkin-Elmer). Series of different concentrations of FMN standard was used for setting of a calibration curve on fluorescence intensity. The dissociation constants Kd were calculated according to [22] and converted to the binding Gibbs energy changes ΔGb = -RTln (1/Kd) (where R, gas constant, T, absolute temperature), from which the variation of Gibbs energy due to mutation (ΔΔGb) was computed as the difference in binding energy between mutant and wild-type enzyme (ΔΔGb = ΔGb(mut) - ΔGb(wt)).

[1] = Standard redox potential by xanthine/xanthine oxidase method of Massey with reference dye; format: physicochemical; conditions: 50 µM free FMN, pH 7.0
FerBHis6 = assay: Stopped-flow reduction of enzyme-bound flavin cofactor by NADH; format: biochemical, Paracoccus denitrificans
Description: Stopped-flow spectrophotometry was performed on a SFM-3000 (Bio-Logic) stopped-flow system equipped with a 0.8- × 0.8-mm cuvette (FC-08). The temperature was kept constant at 10 °C with a thermostating water bath. Six measurements were averaged for each sample. […] Results from the stopped-flow experiments were analyzed in the Bio-Kine software (BioLogic).

FerB = assay: Activity toward external FMN, wild-type enzyme; format: biochemical, Paracoccus denitrificans
Description: (§1) The kinetic parameters ± standard error were determined by fitting the data to the appropriate kinetic equation using nonlinear regression and the program Microcal Origin (version 5.0).

FerBHis6-R95A = target: T1, FerBHis6-R95A (Paracoccus denitrificans, UniProt A1B9E3, R95A); assay: NADH:flavin oxidoreductase initial-velocity kinetics of R95A mutant; format: biochemical
T1 sequence (A1B9E3 1-182 R95A): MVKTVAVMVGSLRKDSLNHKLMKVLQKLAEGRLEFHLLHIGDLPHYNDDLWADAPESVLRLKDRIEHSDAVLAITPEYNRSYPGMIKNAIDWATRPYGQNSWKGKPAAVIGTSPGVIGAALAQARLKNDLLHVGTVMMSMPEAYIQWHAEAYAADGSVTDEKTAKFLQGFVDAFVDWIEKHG
Description: as §1
(§2) Measurements were performed at 30 °C with 61 nM enzyme in 25 mM Tris-HCl buffer (pH 7.4).

[2] = FMN self-association in aqueous solution by 1H NMR chemical shift (literature); format: physicochemical; conditions: order of magnitude, from association constant of ref 46
[3] = cited from earlier work
WrbA protein of E. coli = system: WrbA protein of E. coli; design: method as in PMID 9694845; conditions: cited from earlier work
[4] = design: method as in PMID 17029888; conditions: aqueous solutions; cited from earlier work
B. subtilis YhdA = system: B. subtilis YhdA; design: method as in PMID 16752898; conditions: cited from earlier work
[5] = system: EmoB of Mesorhizobium sp. bacterium BNC1; conditions: cited from earlier work
[6] = target: FerBHis6 wild-type and mutant variants; assay: Steady-state kinetics of NADH oxidation with UQ-0 as acceptor (quinone reductase activity); format: biochemical, Paracoccus denitrificans; conditions: UQ-0 100 µM, pH 7.4, 30 °C
Description: as §1

[7] = target: FerB (ferric reductase B, NAD(P)H:acceptor oxidoreductase) of Paracoccus denitrificans with a C-terminal six-histidine tag (Paracoccus denitrificans) (UniProt P84469); assay: SAXS; […] protein, 290.15 K, buffer of the last purification step; dimer to tetramer; volume fractions by OLIGOMER
[8] = target: FerB (ferric reductase B, NAD(P)H:acceptor oxidoreductase) of Paracoccus denitrificans with a C-terminal six-histidine tag (Paracoccus denitrificans) (UniProt P84469); assay: SAXS; 5.0 mg/mL protein, 290.15 K, buffer of the last purification step; dimer to tetramer; volume fractions by OLIGOMER
[9] = target: FerB (ferric reductase B, NAD(P)H:acceptor oxidoreductase) of Paracoccus denitrificans with a C-terminal six-histidine tag (Paracoccus denitrificans) (UniProt P84469); assay: SAXS; 1.25 mg/mL protein, 290.15 K, buffer of the last purification step; dimer to tetramer; volume fractions by OLIGOMER
[10] = target: FerB (ferric reductase B, NAD(P)H:acceptor oxidoreductase) of Paracoccus denitrificans with a C-terminal six-histidine tag (Paracoccus denitrificans) (UniProt P84469); assay: SEC; Superose 12, 0.1 mL of 0.5 mg/mL protein, 25 mM Tris-HCl pH 7.4, 0.5 mL/min, calibrated with marker proteins; holoenzyme
[11] = system: Cc1cc2nc3c(=O)[nH]c(=O)nc-3n(C[C@H](O)[C@H](O)[C@H](O)CO)c2cc1C; assay: purified protein, by the assay type; format: biochemical, Paracoccus denitrificans; conditions: other: NADH as donor; pH 7.4; 30.0 °C
Description: as §1, §2

[12] = system: Cc1cc2nc3c(=O)[nH]c(=O)nc-3n(C[C@H](O)[C@H](O)[C@H](O)COP(=O)(O)O)c2cc1C; assay: purified protein, by the assay type; format: biochemical, Paracoccus denitrificans; conditions: other: NADH as donor
Description: as §1, §2

[13] = system: Cc1cc2nc3c(=O)[nH]c(=O)nc-3n(C[C@H](O)[C@H](O)[C@H](O)COP(=O)(O)OP(=O)(O)OC[C@H]3O[C@@H](n4cnc5c(N)ncnc54)[C@H](O)[C@@H]3O)c2cc1C; assay: purified protein, by the assay type; format: biochemical, Paracoccus denitrificans; conditions: other: NADH as donor; pH 7.4; 30.0 °C
Description: as §1, §2

Molecule: Cc1cc2nc3c(=O)[nH]c(=O)nc-3n(C[C@H](O)[C@H](O)[C@H](O)COP(=O)(O)O)c2cc1C [FMN, flavin mononucleotide]
Kd (apoFerBHis6): 0.027 ± 0.002 µM
Gibbs binding energy coming from the phosphate (apoFerBHis6; calculated from Kd values of FMN and riboflavin): -3.25 kcal/mol
total Gibbs binding energy (apoFerBHis6; calculated from experimental Kd): -10.3 kcal/mol
E° ´ of free flavin [1]: −212 mV
kinetic solvent isotope effect kobs(H2O)/kobs(D2O) (FerBHis6; 99% deuterium oxide, buffer pH 6.8): 1.9
ratio of kcat toward external FMN to kcat toward UQ-0 (FerB): about 0.006
kcat (catalytic constant) of flavin reduction (FerBHis6-R95A; NADH as donor, 30 °C, 25 mM Tris-HCl pH 7.4): 50 s⁻¹
ratio of kcat toward external FMN to kcat toward UQ-0 (FerBHis6-R95A; R95A mutation): 0.32
expected dissociation constant of self-association [2]: ~10 mM
E° ´ published value ([3]; free FMN): −207 mV
Kd (WrbA protein of E. coli): 2 µM
self-association constant [4]: 20 to 100 M⁻¹
kcat of FMN reduction (B. subtilis YhdA): 60 to 70 s⁻¹
kcat of FMN reduction ([5]; calculated from Vmax using subunit mass 21 412 Da): 397 s⁻¹
Vmax [5]: 1111 µmol/min/mg

Molecule: NC(=O)C1=CN([C@@H]2O[C@H](COP(=O)(O)OP(=O)(O)OC[C@H]3O[C@@H](n4cnc5c(N)ncnc54)[C@H](O)[C@@H]3O)[C@@H](O)[C@H]2O)C=CC1 [NADH]
NADH concentration giving half maximal effect on kobs (FerBHis6; 30 µM FerBHis6, 1–5000 µM NADH, 10 °C, anaerobic): 6.4 ± 1.0 µM
pH dependence of kobs (FerBHis6; 5 mM NADH, pH interval 3–9): did not depend on pH
limit of kobs (apparent electron-transfer rate constant for FerB-NADH complex) (FerBHis6; 10 °C, anaerobic): 147.0 ± 0.4 s⁻¹ and ~140 s⁻¹
Michaelis constant for NADH (FerBHis6-R95A; FMN as acceptor, bisubstrate ping-pong fit): 33 ± 7 µM

time to complete oxidation of dithionite pre-reduced flavin cofactor (FerBHis6; 200 µM UQ-0, within stopped-flow dead time, all proteins): ≤ 0.4 ms
Molecule: COC1=C(OC)C(=O)C(C)=CC1=O [UQ-0, 2,3-dimethoxy-5-methyl-1,4-bezoquinone]

Molecule: [2H][C@@H]1C=CN(C2OC(COP(=O)(O)OP(=O)(O)OCC3OC(n4cnc5c(N)ncnc54)C(O)C3O)C(O)C2O)C=C1C(N)=O (stereo partly drawn) [[4R-^2H]NADH]
kinetic isotope effect for enzyme-catalyzed UQ-0 reduction [6]: 1.07±0.13

Molecule: [2H][C@H]1C=CN(C2OC(COP(=O)(O)OP(=O)(O)OCC3OC(n4cnc5c(N)ncnc54)C(O)C3O)C(O)C2O)C=C1C(N)=O (stereo partly drawn) [[4S-^2H]NADH]
kinetic isotope effect for enzyme-catalyzed UQ-0 reduction [6]: 5.45±0.21

Molecule: O=C1c2ccccc2C(=O)c2cc(S(=O)(=O)O)ccc21 [anthraquinone-2-sulfonate]
E° ´ of reference dye [3]: −225 mV

Molecule: [2H]C1C=CN(C2OC(COP(=O)(O)OP(=O)(O)OCC3OC(n4cnc5c(N)ncnc54)C(O)C3O)C(O)C2O)C=C1C(N)=O (centres unmarked) [deuterated NADH]
kinetic isotope effect for enzyme-catalyzed UQ-0 reduction [6]: about 6

Molecule: O=C1/C(=C2\Nc3ccc(S(=O)(=O)[O-])cc3C2=O)Nc2ccc(S(=O)(=O)[O-])cc21.[Na+].[Na+] [indigo carmine]
E° ´ of reference dye [3]: −125 mV

Molecule: Nc1ccc2nc3ccc(N)cc3[n+](-c3ccccc3)c2c1.[Cl-] [phenosafranin]
E° ´ of reference dye [3]: −252 mV

Molecule: Cc1cc2nc3c(=O)[nH]c(=O)nc-3n(C[C@H](O)[C@H](O)[C@H](O)CO)c2cc1C [riboflavin]
Kd (apoFerBHis6): 6.58 µM and 6.6 µM
increase in Kd relative to FMN (apoFerBHis6; riboflavin vs FMN): 244 fold

partial volume fraction of dimer [7]: 13%
partial volume fraction of tetramer [7]: 87%
partial volume fraction of dimer [8]: 9%
partial volume fraction of tetramer [8]: 91%
partial volume fraction of dimer [9]: 34%
partial volume fraction of tetramer [9]: 66%
stoichiometry N [10]: 1.88 subunits
Molecule: FerB (ferric reductase B, NAD(P)H:acceptor oxidoreductase) of Paracoccus denitrificans with a C-terminal six-histidine tag (from UniProt P84469 1-27) (enzyme)

Molecule: FerBHis6-R95A (Paracoccus denitrificans PD1222; R95A)
Km [11]: 59 ± 12 µM
kcat [11]: 75 ± 10 s⁻¹
kcat ([12]; 30 °C, 25 mM Tris-HCl pH 7.4): 50 ± 5 s⁻¹
Km ([12]; pH 7.4, 30.0 °C): 111 ± 15 µM
Km [13]: 95 ± 7 µM
kcat [13]: 38 ± 1 s⁻¹
